Data: patent US20230265151A1, “GIP/GLP1 CO-AGONIST COMPOUNDS” (priority 2020, published 2023)
Where two headings read alike, the source gives them in different places.

Assays:
Format in all cases: cell-based
[1] = biological target: T1, hGIPR (Homo sapiens, UniProt P48546); assay: Functional cAMP formation (HTRF) in HEK-293 clonal cells expressing hGIPR, 0.1% bovine casein, without or with 1.0% human serum albumin; details: for EC50: geometric mean
T1 construct: expressed in transfected cells
T1 sequence (P48546 22-466): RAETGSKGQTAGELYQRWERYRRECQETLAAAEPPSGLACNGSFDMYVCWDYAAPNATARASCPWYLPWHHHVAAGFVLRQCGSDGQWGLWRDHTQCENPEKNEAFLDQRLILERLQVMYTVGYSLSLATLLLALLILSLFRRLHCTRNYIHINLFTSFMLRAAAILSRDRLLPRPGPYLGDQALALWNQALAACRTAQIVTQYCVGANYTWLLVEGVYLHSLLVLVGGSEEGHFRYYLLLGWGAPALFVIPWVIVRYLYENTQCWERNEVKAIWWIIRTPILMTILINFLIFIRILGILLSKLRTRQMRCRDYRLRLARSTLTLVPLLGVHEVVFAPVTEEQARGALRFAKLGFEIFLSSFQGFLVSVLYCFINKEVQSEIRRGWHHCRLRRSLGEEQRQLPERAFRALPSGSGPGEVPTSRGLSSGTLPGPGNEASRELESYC
In short: (§1)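 Readings of the HTRF 665/620 nm ratio, which falls as cAMP rises, were converted to nM cAMP using a standard curve after 30 min peptide exposure at 37° C.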

[2] = biological target: hGLP-1R (Homo sapiens, UniProt P43220); assay: Functional cAMP formation (HTRF) in HEK-293 clonal cells expressing hGLP-1R, 0.1% bovine casein, without or with 1.0% human serum albumin; parameters: expressed in transfected cells; details: for EC50: geometric mean
In short: as §1

[3] = biological target: T2, hGCGR (Homo sapiens, UniProt P47871); assay: Functional cAMP formation (HTRF) in HEK-293 clonal cells expressing hGCGR, 0.1% bovine casein, without or with 1.0% human serum albumin
T2 construct: expressed in transfected cells
In short: as §1

[4] = HEK293, read-out: hGIPR Emax, % ± SEM, 0.1% bovine casein and 1.0% human serum albumin, 37° C., percent of maximal response to GIP(1-42)NH2
[5] = hGCGR EC50, nM (SEM, n), 0.1% bovine casein and 1.0% human serum albumin, 37° C., geometric mean

hGLP-1R, sequence (P43220 24-463): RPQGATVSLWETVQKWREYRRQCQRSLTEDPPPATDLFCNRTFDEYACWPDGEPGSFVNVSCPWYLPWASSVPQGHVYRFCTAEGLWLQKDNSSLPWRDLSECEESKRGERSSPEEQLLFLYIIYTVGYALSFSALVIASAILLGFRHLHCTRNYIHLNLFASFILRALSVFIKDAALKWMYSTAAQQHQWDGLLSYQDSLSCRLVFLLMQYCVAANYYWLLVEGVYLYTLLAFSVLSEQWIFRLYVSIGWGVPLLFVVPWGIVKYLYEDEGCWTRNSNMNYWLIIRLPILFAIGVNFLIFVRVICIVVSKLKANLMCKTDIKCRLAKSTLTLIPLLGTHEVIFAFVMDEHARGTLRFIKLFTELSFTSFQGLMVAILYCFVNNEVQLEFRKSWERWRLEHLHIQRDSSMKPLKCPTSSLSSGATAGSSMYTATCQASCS
T2 sequence (P47871 26-477): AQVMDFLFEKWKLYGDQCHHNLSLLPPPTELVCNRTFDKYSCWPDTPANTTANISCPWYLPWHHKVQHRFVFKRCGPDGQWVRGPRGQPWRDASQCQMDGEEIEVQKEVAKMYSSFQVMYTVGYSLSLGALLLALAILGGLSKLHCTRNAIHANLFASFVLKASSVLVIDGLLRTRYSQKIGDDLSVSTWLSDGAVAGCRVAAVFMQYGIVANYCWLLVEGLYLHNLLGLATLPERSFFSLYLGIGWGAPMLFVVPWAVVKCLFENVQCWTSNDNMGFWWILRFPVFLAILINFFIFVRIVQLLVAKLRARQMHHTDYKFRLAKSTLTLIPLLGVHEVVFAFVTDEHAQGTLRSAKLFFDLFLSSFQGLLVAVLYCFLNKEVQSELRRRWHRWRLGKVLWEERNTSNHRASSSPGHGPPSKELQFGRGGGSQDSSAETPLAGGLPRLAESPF

CC[C@H](C)[C@H](NC(=O)[C@H](CC(C)C)NC(=O)[C@](C)(Cc1ccc(O)cc1)NC(=O)[C@@H](CCC(=O)O)NC(=O)[C@@H](NC(=O)[C@H](Cc1ccccc1)NC(=O)[C@H](CCCCNC(=O)COCCOCCNC(=O)COCCOCCNC(=O)CC[C@H](NC(=O)CCCCCCCCCOc1ccc(C(=O)O)cc1)C(=O)O)NC(=O)C(C)(C)NC(=O)[C@H](CCC(N)=O)NC(=O)[C@H](C)NC(=O)[C@H](CCCCNC(=O)COCCOCCNC(=O)COCCOCCNC(=O)CC[C@H](NC(=O)CCCCCCCCCOc1ccc(C(=O)O)cc1)C(=O)O)NC(=O)[C@H](CCCN)NC(=O)[C@H](CC(=O)O)NC(=O)[C@H](CC(C)C)NC(=O)[C@](C)(CC(C)C)NC(=O)[C@@H](NC(=O)C(C)(C)NC(=O)[C@@H](NC(=O)[C@H](CC(=O)O)NC(=O)[C@H](CO)NC(=O)[C@@H](NC(=O)[C@](C)(Cc1ccccc1F)NC(=O)[C@@H](NC(=O)CNC(=O)[C@H](CCC(=O)O)NC(=O)C(C)(C)NC(=O)[C@@H](N)Cc1ccc(O)cc1)[C@@H](C)O)[C@@H](C)O)C(C)C)[C@@H](C)CC)[C@@H](C)CC)C(=O)N[C@@H](CCC(=O)O)C(=O)NCC(=O)NCC(=O)N1CCC[C@H]1C(=O)N[C@@H](CO)C(=O)N[C@@H](CO)C(=O)NCC(=O)N[C@@H](C)C(=O)N1CCC[C@H]1C(=O)N1CCC[C@H]1C(=O)N1CCC[C@H]1C(=O)N[C@@H](CO)C(N)=O [Example 319]
Emax [1, 4]: 92.5% | Emax ([1]; HEK293, read-out: hGIPR Emax, % ± SEM, cAMP, 37° C., 0.1% bovine casein, percent of maximal response to GIP(1-42)NH2, arithmetic mean): 98.1% | EC50 ([1]; hGIPR EC50, nM (SEM, n), cAMP, 37° C., 0.1% bovine casein (no human serum albumin)): 0.0196 nM | Emax ([2]; HEK293, read-out: hGLP-1R Emax, % ± SEM, 0.1% bovine casein and 1.0% human serum albumin, 37° C., percent of maximal response to GLP-1(7-36)NH2): 114% | Emax ([2]; HEK293, read-out: hGLP-1R Emax, % ± SEM, cAMP, 37° C., 0.1% bovine casein, percent of maximal response to GLP-1(7-36)NH2, arithmetic mean): 100% | EC50 ([2]; hGLP-1R EC50, nM (SEM, n), cAMP, 37° C., 0.1% bovine casein (no human serum albumin)): 0.18 nM | EC50 [3, 5]: > 9950 nM | EC50 ([3]; hGCGR EC50, nM (SEM, n), cAMP, 37° C., 0.1% bovine casein (no human serum albumin), geometric mean): > 9950 nM

CC[C@H](C)[C@H](NC(=O)[C@H](CC(C)C)NC(=O)[C@](C)(Cc1ccc(O)cc1)NC(=O)[C@@H](CCC(=O)O)NC(=O)[C@@H](NC(=O)[C@H](Cc1ccccc1)NC(=O)[C@H](CCC(=O)O)NC(=O)C(C)(C)NC(=O)[C@H](CCC(N)=O)NC(=O)[C@H](C)NC(=O)[C@H](CCCCNC(=O)COCCOCCNC(=O)COCCOCCNC(=O)CC[C@H](NC(=O)CCCCCCCCCCCCC(=O)O)C(=O)O)NC(=O)[C@H](CCCN)NC(=O)[C@H](CC(=O)O)NC(=O)[C@H](CC(C)C)NC(=O)[C@](C)(CC(C)C)NC(=O)[C@@H](NC(=O)[C@H](CN)NC(=O)[C@H](Cc1ccncc1)NC(=O)[C@H](CC(=O)O)NC(=O)[C@H](CO)NC(=O)[C@@H](NC(=O)[C@](C)(Cc1ccccc1F)NC(=O)[C@@H](NC(=O)CNC(=O)[C@H](CCC(=O)O)NC(=O)C(C)(C)NC(=O)[C@@H](N)Cc1ccc(O)cc1)[C@@H](C)O)[C@@H](C)O)[C@@H](C)CC)[C@@H](C)CC)C(=O)N[C@@H](CCC(=O)O)C(=O)NCC(=O)NCC(=O)N[C@@H](CCCCNC(=O)COCCOCCNC(=O)COCCOCCNC(=O)CC[C@H](NC(=O)CCCCCCCCCCCCC(=O)O)C(=O)O)C(=O)N[C@@H](CO)C(=O)N[C@@H](CO)C(=O)NCC(=O)N[C@@H](C)C(=O)N1CCC[C@H]1C(=O)N1CCC[C@H]1C(=O)N1CCC[C@H]1C(=O)N[C@@H](CO)C(N)=O [Example 199]
Emax ([1]; HEK293, 0.1% bovine casein and 1.0% human serum albumin, 37° C., percent of maximal response to GIP(1-42)NH2, read-out: hGIPR Emax, % ± SEM): 77.1% | Emax ([1]; HEK293, percent of maximal response to GIP(1-42)NH2, 37° C., 0.1% bovine casein, arithmetic mean, read-out: hGIPR Emax, % ± SEM): 96.9 ± 1.48% | EC50 ([1]; cAMP, incubated at 37° C., 0.1% bovine casein (no human serum albumin), read-out: hGIPR EC50, nM (SEM, n)): 0.0587 nM | Emax ([2]; HEK293, 0.1% bovine casein and 1.0% human serum albumin, 37° C., percent of maximal response to GLP-1(7-36)NH2, read-out: hGLP-1R Emax, % ± SEM): 100% | Emax ([2]; HEK293, percent of maximal response to GLP-1(7-36)NH2, 37° C., 0.1% bovine casein, arithmetic mean, read-out: hGLP-1R Emax, % ± SEM): 96.7 ± 6.69% | EC50 ([3]; 0.1% bovine casein and 1.0% human serum albumin, 37° C., geometric mean, read-out: hGCGR EC50, nM (SEM, n)): > 9950 nM | EC50 ([3]; cAMP, incubated at 37° C., 0.1% bovine casein (no human serum albumin), geometric mean, read-out: hGCGR EC50, nM (SEM, n)): > 9950 nM

CC[C@H](C)[C@H](NC(=O)[C@H](CC(C)C)NC(=O)[C@](C)(Cc1ccc(O)cc1)NC(=O)[C@@H](CCC(=O)O)NC(=O)[C@@H](NC(=O)[C@H](Cc1ccccc1)NC(=O)[C@H](CCCN)NC(=O)C(C)(C)NC(=O)[C@H](CCC(N)=O)NC(=O)[C@H](C)NC(=O)[C@H](CCCCNC(=O)COCCOCCNC(=O)COCCOCCNC(=O)CC[C@H](NC(=O)CCCCCCCCCCCCC(=O)O)C(=O)O)NC(=O)[C@H](CCCN)NC(=O)[C@H](CC(=O)O)NC(=O)[C@H](CC(C)C)NC(=O)[C@](C)(CC(C)C)NC(=O)[C@@H](NC(=O)C(C)(C)NC(=O)[C@@H](NC(=O)[C@H](CC(=O)O)NC(=O)[C@H](CO)NC(=O)[C@@H](NC(=O)[C@](C)(Cc1ccccc1F)NC(=O)[C@@H](NC(=O)CNC(=O)[C@H](CCC(=O)O)NC(=O)C(C)(C)NC(=O)[C@@H](N)Cc1ccc(O)cc1)[C@@H](C)O)[C@@H](C)O)C(C)C)[C@@H](C)CC)[C@@H](C)CC)C(=O)N[C@@H](CCCCNC(=O)COCCOCCNC(=O)COCCOCCNC(=O)CC[C@H](NC(=O)CCCCCCCCCCCCC(=O)O)C(=O)O)C(=O)NCC(=O)NCC(=O)N1CCC[C@H]1C(=O)N[C@@H](CO)C(=O)N[C@@H](CO)C(=O)NCC(=O)N[C@@H](C)C(=O)N1CCC[C@H]1C(=O)N1CCC[C@H]1C(=O)N1CCC[C@H]1C(=O)N[C@@H](CO)C(N)=O [Example 350]
Emax ([1]; HEK293, cAMP, 37° C., 0.1% bovine casein and 1.0% human serum albumin, percent of maximal response to GIP(1-42)NH2, read-out: hGIPR Emax, % ± SEM): 73.5% | EC50 ([1]; cAMP, 37° C., 0.1% bovine casein (no human serum albumin), read-out: hGIPR EC50, nM (SEM, n)): 0.0288 nM | Emax ([2]; HEK293, cAMP, 37° C., 0.1% bovine casein and 1.0% human serum albumin, percent of maximal response to GLP-1(7-36)NH2, read-out: hGLP-1R Emax, % ± SEM): 91.4% | Emax ([2]; HEK293, cAMP, 37° C., 0.1% bovine casein, percent of maximal response to GLP-1(7-36)NH2, arithmetic mean, read-out: hGLP-1R Emax, % ± SEM): 95.9% | EC50 ([2]; cAMP, 37° C., 0.1% bovine casein (no human serum albumin), read-out: hGLP-1R EC50, nM (SEM, n)): 0.202 nM | EC50 ([3]; cAMP, 37° C., 0.1% bovine casein (no human serum albumin), geometric mean, read-out: hGCGR EC50, nM (SEM, n)): > 9950 nM | EC50 ([3]; cAMP, 37° C., 0.1% bovine casein and 1.0% human serum albumin, geometric mean (SEM, n), read-out: hGCGR EC50, nM (SEM, n)): > 9950 nM

CC[C@H](C)[C@H](NC(=O)[C@H](CC(C)C)NC(=O)[C@](C)(Cc1ccc(O)cc1)NC(=O)[C@H](CCCCNC(=O)COCCOCCNC(=O)CC[C@H](NC(=O)CCCCCCCCCCCCC(=O)O)C(=O)O)NC(=O)[C@@H](NC(=O)[C@H](Cc1ccccc1)NC(=O)[C@H](CCC(=O)O)NC(=O)C(C)(C)NC(=O)[C@H](CCC(N)=O)NC(=O)[C@H](C)NC(=O)[C@H](CCCCNC(=O)COCCOCCNC(=O)CC[C@H](NC(=O)CCCCCCCCCCCCC(=O)O)C(=O)O)NC(=O)[C@H](CCCN)NC(=O)[C@H](CC(=O)O)NC(=O)[C@H](CC(C)C)NC(=O)[C@](C)(CC(C)C)NC(=O)[C@@H](NC(=O)[C@H](CO)NC(=O)[C@H](Cc1ccncc1)NC(=O)[C@H](CC(=O)O)NC(=O)[C@H](CO)NC(=O)[C@@H](NC(=O)[C@](C)(Cc1ccccc1F)NC(=O)[C@@H](NC(=O)CNC(=O)[C@H](CCC(=O)O)NC(=O)C(C)(C)NC(=O)[C@@H](N)Cc1ccc(O)cc1)[C@@H](C)O)[C@@H](C)O)[C@@H](C)CC)[C@@H](C)CC)C(=O)N[C@@H](CCC(=O)O)C(=O)NCC(=O)NCC(=O)N1CCC[C@H]1C(=O)N[C@@H](CO)C(=O)N[C@@H](CO)C(=O)NCC(=O)N[C@@H](C)C(=O)N1CCC[C@H]1C(=O)N1CCC[C@H]1C(=O)N1CCC[C@H]1C(=O)N[C@@H](CO)C(N)=O [Example 79]
Emax [1, 4]: 95% | EC50 ([1]; hGIPR EC50, nM (SEM, n), 0.1% bovine casein and 1.0% human serum albumin, 37° C.): 2.31 nM | EC50 ([1]; hGIPR EC50, nM (SEM, n), cAMP, incubated at 37° C., 0.1% bovine casein (no human serum albumin)): 0.013 nM | EC50 ([2]; hGLP-1R EC50, nM (SEM, n), 0.1% bovine casein and 1.0% human serum albumin, 37° C.): 15.1 nM | EC50 ([2]; hGLP-1R EC50, nM (SEM, n), cAMP, incubated at 37° C., 0.1% bovine casein (no human serum albumin)): 0.223 nM | EC50 [3, 5]: > 9950 nM | EC50 ([3]; hGCGR EC50, nM (SEM, n), cAMP, incubated at 37° C., 0.1% bovine casein (no human serum albumin), geometric mean): > 9950 nM
